The values that follow come from patent US20260097017A1, “TASIPIMIDINE AND CYP2D6 INHIBITOR COMBINATION TREATMENT” (ORION CORPORATION, priority 2022, published 2026).

Where two headings read alike, the source gives them in different places.

Data set [1] has as its target T1, CYP1A2 (Homo sapiens, UniProt P05177).
T1 construct: purchased; host or cells: baculovirus-transfected insect cells
T1 sequence (P05177 1-516): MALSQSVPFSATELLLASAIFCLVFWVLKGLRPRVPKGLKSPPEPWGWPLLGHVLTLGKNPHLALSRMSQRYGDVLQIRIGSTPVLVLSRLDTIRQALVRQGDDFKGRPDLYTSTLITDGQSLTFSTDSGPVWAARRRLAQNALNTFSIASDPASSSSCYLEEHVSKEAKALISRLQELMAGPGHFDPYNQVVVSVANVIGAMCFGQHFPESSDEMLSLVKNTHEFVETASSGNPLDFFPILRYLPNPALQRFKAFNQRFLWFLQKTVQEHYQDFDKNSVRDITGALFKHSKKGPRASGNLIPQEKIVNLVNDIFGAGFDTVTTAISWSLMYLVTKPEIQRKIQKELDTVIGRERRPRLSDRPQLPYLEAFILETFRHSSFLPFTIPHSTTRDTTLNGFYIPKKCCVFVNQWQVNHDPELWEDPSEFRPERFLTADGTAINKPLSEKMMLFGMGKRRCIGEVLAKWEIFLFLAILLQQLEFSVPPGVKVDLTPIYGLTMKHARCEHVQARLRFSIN
Briefly: Recombinant human CYP incubations (enzyme identification). It counts as in vitro ADME. On the procedure: (§1) The objective of these studies was to identify enzymes involved in the metabolism of tasipimidine in human. The test substance tasipimidine and the reference compounds for main tasipimidine metabolites 1-(4,5-dihydro-1H-imidazol-2-yl) isochroman-5-ol (metabolite 1), 2-(5-methoxyisochroman-1-yl)-1H-imidazole (metabolite 2), and 1-(1H-imidazol-2-yl) isochroman-5-ol (metabolite 3) were supplied by Orion Pharma. To further support the findings of recombinant enzyme incubations tasipimidine was incubated with human hepatocytes with two enzyme inhibitors, i.e. 1-aminobenzotriazole (ABT, non-selective CYP inhibitor), and quinidine (CYP2D6 inhibitor).
(§2) The analysis for disappearance of tasipimidine and the identification of the formed metabolites were carried out by using a high-resolution liquid chromatographic-mass spectrometer supported by accurate masses (UPLC-HRMS). Firstly, metabolic stability of tasipimidine in different in vitro matrices was determined by monitoring the disappearance of the parent compound as a function of time. Moreover, structures of the formed metabolites were characterized from their respective product ion spectra. The synthetized reference compounds of the metabolites were used to confirm the identification of those specific metabolites.

Data set [2] deals with T2, CYP2C19 (Homo sapiens, UniProt P33261).
T2 construct: purchased; host or cells: baculovirus-transfected insect cells
T2 sequence (P33261 whole entry): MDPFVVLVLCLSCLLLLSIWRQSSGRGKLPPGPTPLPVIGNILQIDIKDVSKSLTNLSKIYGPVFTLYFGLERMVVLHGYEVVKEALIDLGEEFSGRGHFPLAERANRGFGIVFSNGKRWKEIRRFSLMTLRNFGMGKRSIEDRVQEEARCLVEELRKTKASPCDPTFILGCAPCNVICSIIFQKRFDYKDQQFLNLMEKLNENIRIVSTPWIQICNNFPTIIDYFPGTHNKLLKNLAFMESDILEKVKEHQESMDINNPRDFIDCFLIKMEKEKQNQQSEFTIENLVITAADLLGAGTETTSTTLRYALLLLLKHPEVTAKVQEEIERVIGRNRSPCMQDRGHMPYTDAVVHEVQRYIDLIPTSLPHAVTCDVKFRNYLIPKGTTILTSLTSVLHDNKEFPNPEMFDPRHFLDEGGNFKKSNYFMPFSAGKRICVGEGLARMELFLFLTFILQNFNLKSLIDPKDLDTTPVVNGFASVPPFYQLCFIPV
Described as above. Type of data set: in vitro ADME. On the procedure: as §1, §2

The target of data set [3] is T3, CYP1A1 (Homo sapiens, UniProt P04798).
T3 construct: purchased; host or cells: baculovirus-transfected insect cells
T3 sequence (P04798 1-512): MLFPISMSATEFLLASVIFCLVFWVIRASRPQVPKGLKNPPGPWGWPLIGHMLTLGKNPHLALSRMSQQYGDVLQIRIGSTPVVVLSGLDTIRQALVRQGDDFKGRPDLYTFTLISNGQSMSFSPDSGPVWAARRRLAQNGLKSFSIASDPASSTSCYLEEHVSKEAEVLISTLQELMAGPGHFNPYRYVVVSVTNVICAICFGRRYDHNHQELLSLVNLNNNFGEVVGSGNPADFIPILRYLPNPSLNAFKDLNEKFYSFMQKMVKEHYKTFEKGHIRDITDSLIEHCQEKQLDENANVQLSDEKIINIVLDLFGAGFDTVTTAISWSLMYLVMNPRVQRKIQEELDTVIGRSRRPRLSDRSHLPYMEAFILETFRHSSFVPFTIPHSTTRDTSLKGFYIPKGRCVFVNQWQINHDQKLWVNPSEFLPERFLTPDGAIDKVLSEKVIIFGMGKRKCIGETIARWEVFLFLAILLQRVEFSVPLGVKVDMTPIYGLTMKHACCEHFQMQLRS
The data set is described as above. Type of data set: in vitro ADME. On the procedure:
as §1, §2

For data set [4], the target named is CYP2D6 (Homo sapiens, UniProt P10635). Nature of the data set: CYP2D6 kinetic parameters (PBPK input parameters). It counts as in vitro ADME. The note with it: input parameter of the PBPK model. The text has this:
(§3) A physiologically based pharmacokinetic (PBPK) model was used to simulate the plasma exposure of tasipimidine in fasted healthy 30 years old males of 70 kg with different CYP2D6 phenotypes. Simulations were produced with the commercial GastroPlus® 9.8.2 software.

For data set [5] the following is noted: dogs, triggered by noise or owner departure; cited from earlier work.
A short description of data set [6]: Physicochemical input parameters of the PBPK model. As to conditions: input parameter of the PBPK model.
Excerpt: as §3

A short description of data set [7]: Renal clearance (PBPK input parameter). The note with it: human, in vivo; input parameter of the PBPK model.
Excerpt: as §3

Data set [8] in a line: Paroxetine co-treatment crossover PK study in healthy subjects. Type of data set: in vivo, human. As to conditions: 10 μg oral, mean, n = 5; for AUC(0-inf) / Cmax / half-life: human, plasma; for half-life: read-out: t½ (converted). On the procedure:
Effect of co-treatment with a strong CYP2D6 inhibitor paroxetine on the PK of tasipimidine was studied. The study was an open label, crossover study with 5 healthy female and/or male subjects aged 26-51 years. The study started with a 8 days long once daily treatment of paroxetine 20 mg tablet. On the last day of paroxetine treatment, a single 10 μg dose of tasipimidine as oral solution was administered 1 h after the paroxetine intake after an overnight fast.
The subjects were genotyped for CYP2D6 on screening. The translation of CYP2D6 genotype to CYP2D6 phenotype was done according to the national consensus published by the Dutch Pharmacogenetics Working Group from KNMP (https://www.knmp.nl/index.php/media/113). The subjects with CYP2D6 poor metabolizer genotype were excluded from the study. The translation of CYP2D6 genotype to activity score was done according to the CYP2D6 Allele Functionality Table of PharmGKB (https://www.pharmgkb.org/page/cyp2d6RefMaterials).
Frequent blood samples were taken through an intravenous cannula for the assessment of the concentration of tasipimidine and its metabolite 1 in plasma. The sampling times were before (0 h) and 20 min, 40 min, 1, 1.5, 2, 2.5, 3, 3.5, 4, 5, 6, 8, 12, 24, 36, and 48 hours after the study treatment administration. The PK parameters were calculated from the plasma concentration-time data by noncompartmental method using the commercial Phoenix WinNonlin software version 8.3.

Data set [9] is described as follows: Caco-2 permeability (PBPK input parameter). As to conditions: human, input parameter of the PBPK model. Type of data set: in vitro ADME.
Excerpt: as §3
(Passage across Caco-2 layers is used to estimate intestinal permeability.)

Setting [10] is: with paroxetine 20 mg once daily for 8 days.

Chain of CYP2D6 (P10635 whole entry): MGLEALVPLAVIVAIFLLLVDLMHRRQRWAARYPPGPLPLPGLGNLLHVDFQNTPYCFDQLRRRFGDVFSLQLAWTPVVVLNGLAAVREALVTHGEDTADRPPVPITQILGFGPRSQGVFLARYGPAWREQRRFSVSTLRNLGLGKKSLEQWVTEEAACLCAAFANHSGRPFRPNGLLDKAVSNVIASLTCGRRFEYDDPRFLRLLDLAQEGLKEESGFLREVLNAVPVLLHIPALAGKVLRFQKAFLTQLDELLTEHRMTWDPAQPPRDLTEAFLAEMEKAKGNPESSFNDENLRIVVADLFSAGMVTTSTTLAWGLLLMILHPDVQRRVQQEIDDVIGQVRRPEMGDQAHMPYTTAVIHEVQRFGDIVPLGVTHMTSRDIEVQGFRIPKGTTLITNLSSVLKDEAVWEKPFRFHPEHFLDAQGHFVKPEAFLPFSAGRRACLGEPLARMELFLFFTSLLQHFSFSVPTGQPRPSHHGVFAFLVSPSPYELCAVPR

What is called logP is the decadic logarithm of the partition coefficient of the neutral form, usually between octanol and water. A word on the pKa: it is the negative logarithm of the acid dissociation constant. A higher pKa goes with a weaker acid or stronger base. By AUC(0-inf) is commonly meant total exposure, with the tail of the curve extrapolated. A word on the Cmax: it is the peak of the concentration-time curve. In general, Papp refers to a coefficient for how fast a substance crosses the barrier. Higher therefore signals ready permeation. Consider `COc1cccc2c1CCOC2C1=NCCN1` (stereo not drawn) [tasipimidine, 2-(5-methoxyisochroman-1-yl)-4,5-dihydro-1H-imidazole], for which the “contribution of enzyme to tasipimidine metabolism” value (from here on “contribution of enzyme”) in data set [1] is reported as “minor contributors”. Also, the “contribution of enzyme” value in [2] is “minor contributors”. Also, in [3], the “contribution of enzyme” value was “minor contributors”. The “Vmax for CYP2D6” value in data set [4] amounted to 0.000043 mg/s. The “relief of situational anxiety and fear” value in data set [5] is “effective in relieving situational anxiety and fear”. Besides, in data set [6], the log partition coefficient (logP) is 1.66 and the pKa amounted to 9.24. The CL renal in data set [7] is 105 mL/min. Further, in data set [8], the “AUCinf ratio with/without paroxetine” value is recorded as 3.1, the “Cmax ratio with/without paroxetine” value came to 1.9 and the “t½ ratio with/without paroxetine” value is reported as 1.7. In [8] (10 ug, without paroxetine), the AUC(0-inf) was 0.106 ng·h/mL, the Cmax is 0.026 ng/mL and the half-life is 2.6 h. Moreover, in data set [8] (setting [10]), the AUC(0-inf) worked out at 0.281 ng·h/mL, the Cmax amounted to 0.047 ng/mL and the half-life was 4.3 h. In data set [9], this molecule showed a Papp of 15.4 ×10⁻⁶ cm/s.
